According to BigSolDB 2.1:

O=C(N[C@H](C(=O)O)c1ccccc1)OCc1ccccc1
solubility (mole fraction)
Conditions | 283.15 K | 288.15 K | 293.15 K | 298.15 K | 303.15 K | 313.15 K | 323.15 K
in 2-butanone | 0.0446 | – | 0.0596 | – | 0.0762 | 0.0957 | 0.111
in acetone | 0.0605 | – | 0.0786 | – | 0.1 | 0.129 | 0.159
in acetonitrile | 0.0067 | – | 0.00966 | – | 0.0143 | 0.0253 | 0.053
in dichloromethane | 0.00624 | 0.00703 | 0.00874 | 0.0112 | 0.0149 | – | –
in ethanol | 0.0235 | – | 0.0354 | – | 0.0581 | 0.0922 | 0.141
in ethyl acetate | 0.0209 | – | 0.0274 | – | 0.0371 | 0.0549 | 0.073
in isopropanol | 0.0107 | – | 0.0175 | – | 0.0328 | 0.0604 | 0.105
in methanol | 0.0325 | – | 0.0479 | – | 0.0794 | 0.111 | 0.146
in methyl acetate | 0.028 | – | 0.0399 | – | 0.0541 | 0.0739 | 0.0918
in n-propanol | 0.0141 | – | 0.0231 | – | 0.039 | 0.068 | 0.11
in water | 1.1e-05 | – | 2.4e-05 | – | 4.5e-05 | 5.7e-05 | 6.9e-05
